According to PubChem BioAssay (NCI):
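Test compounds were applied to cells in 96-well plates for 48 hours at 5 doses. Here, GI50 denotes the concentration required for 50% inhibition of growth. TGI: total growth inhibition.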

What was measured:
Test in all cases: inhibition of tumour cell growth, NCI panel, 48 h
RXF 393 renal = test system: RXF 393 renal
SR leukemia = test system: SR leukemia
EKVX NSCLC = test system: EKVX NSCLC
T-47D breast = test system: T-47D breast
HOP-92 NSCLC = test system: HOP-92 NSCLC
NCI-H522 lung = test system: NCI-H522 lung
NCI-H23 lung = test system: NCI-H23 lung
HT29 colon = test system: HT29 colon
U251 CNS = test system: U251 CNS
DU-145 prostate = test system: DU-145 prostate

Row | Compound | GI50 (RXF 393 renal) [µM] | TGI (RXF 393 renal) [µM] | GI50 (SR leukemia) [µM] | TGI (SR leukemia) [µM] | GI50 (EKVX NSCLC) [µM] | TGI (EKVX NSCLC) [µM] | GI50 (T-47D breast) [µM] | TGI (T-47D breast) [µM] | GI50 (HOP-92 NSCLC) [µM] | TGI (HOP-92 NSCLC) [µM] | GI50 (NCI-H522 lung) [µM] | TGI (NCI-H522 lung) [µM] | GI50 (NCI-H23 lung) [µM] | TGI (NCI-H23 lung) [µM] | GI50 (HT29 colon) [µM] | TGI (HT29 colon) [µM] | GI50 (U251 CNS) [µM] | TGI (U251 CNS) [µM] | GI50 (DU-145 prostate) [µM] | TGI (DU-145 prostate) [µM]
1 | CN1CCN(CCCn2c(=O)c3sc4ncccc4c3n3nnc(-c4ccccc4)c23)CC1 | 6.36 | 13.4 | 1.11 | 2.57 | 6.47 | 13.3 | 7.99 | 15.8 | 5.8 | 12.9 | 7.23 | 14.4 | 8.07 | 15.3 | 2.89 | 9.54 | 5.21 | 11.2 | 5.85 | 12.2
2 | CC(C)(C)OC(=O)N[C@H]1CC2(C=C(Cl)C(=O)C(Cl)=C2)OC1=O |  | 22.4 |  | > 25 |  | 40.9 |  | 40.5 |  | 31.7 |  | 7.18 |  | 33.7 |  | 27.9 |  | 45.2 |  | 78.9
3 | N#CC(C#N)=CNC(N)=S |  | > 100 |  | > 100 |  | > 100 |  | > 100 |  | > 100 |  | > 100 |  | > 100 |  | > 100 |  | > 100 |  | > 100
4 | N=Nc1c(OC(=O)Nc2cccc(Cl)c2)[nH]c2ccccc12 |  | 26.1 |  | 44.5 |  | 16.8 |  | 7.34 |  | 18.1 |  | 11.3 |  | 12.1 |  | 17.7 |  | 18.9 |  | 20.3
5 | OCc1ccc(-c2ccc(-c3ccc(CO)s3)o2)s1 |  | 1.77 |  | 61.1 |  | > 96.4 |  | 7.59 |  | 91.2 |  | > 100 |  | > 90.9 |  | > 95 |  | 23.4 |  | 66.5
6 | Cc1ccccc1S(=O)(=O)OC1NS(=O)(=O)c2ccccc21 (stereo not given) |  | > 100 |  | > 100 |  | > 100 |  | > 100 |  | > 100 |  | > 100 |  | > 100 |  | > 100 |  | > 100 |  | > 100
7 | CC(C)[C@H]1COC(=O)N1[C@@H]1C(=O)N([C@@H](CCC(=O)N2CCN(C3CCCC3)CC2)C(=O)N[C@@H]2CCCc3ccccc32)[C@@H]1/C=C/c1cccc(Br)c1 | 1.59 | 3.47 | 1.87 | 4.71 | 3.01 | 15.2 | 2.26 |  | 1.5 | 4.21 | 1.75 | 3.51 | 3.46 | 16.6 | 1.3 | 2.77 | 1.9 | 3.51 | 1.52 | 7.57
8 | COc1ccc(-c2nnc(COc3ccc(C(=O)/C=C/c4ccco4)cc3)o2)cc1 | 1.87 | 3.62 | 1.52 | 7.28 |  |  | 2.91 | 10.8 | 2.9 | 16.9 | 2.59 | 5.62 | 7.02 | 20.5 | 1.91 | 3.61 | 1.62 | 3.08 | 2.33 | 5.72
9 | C=C1NC(=O)C(C(C)CC)NC(=O)C2CSCC(NC(=O)CCC(=O)O)C(=O)NC(Cc3ccccc3)C(=O)NC(C)C(=O)NC(CC(C)CC)C(=O)NC(C(=O)NC(Cc3ccccc3)C(=O)N3CCCC3C(=O)N2)C(C)OC(=O)C(CO)NC(=O)C(C(O)COC)N(C)C(=O)C(C(C)C)NC(=O)C(CC(C)CC)NC1=O (stereo not given) | 0.0136 | > 6 | 0.0259 | > 6 | 0.046 | > 6 | 0.0242 | > 6 | 0.0668 | > 4.93 | 0.00411 | 0.359 | 0.1 | > 6 | 0.0165 | > 6 | 0.0101 | > 6 | 0.0238 | > 6
10 | COc1ccc(-c2nnc(COc3ccc(NC(=O)Nc4cc(C(F)(F)F)cc(C(F)(F)F)c4)cc3F)o2)cc1 | 1.96 | 6.06 | 2.19 | 5.95 |  |  | 2.62 | 6.94 | 1.5 | 4.58 | 2.15 | 5.35 | 1.8 | 4.38 | 2.21 | 4.74 | 1.54 | 3.45 | 2.15 | 4.84
11 | COc1cc(/C=C2\CN(S(=O)(=O)c3ccccc3)C/C(=C\c3cc(CN4CCCC4)c(O)c(OC)c3)C2=O)cc(CN2CCCC2)c1O | 1.27 | 2.8 | 0.458 | > 100 | 1.14 | 3.53 | 3.76 | > 100 | 1.51 | 4.69 | 0.318 | 2.11 |  |  | 0.252 | 1.65 |  |  | 0.542 | 1.91
12 | OC(c1nc2ccccc2[nH]1)C(O)C(O)C(O)c1nc2ccccc2[nH]1 (stereo not given) |  | > 100 |  | > 100 |  | > 100 |  | > 100 |  | > 100 |  | > 100 |  |  |  | > 100 |  | > 100 |  | > 100
